Experimental data from patent US10000450B2, “N,N-substituted 3-aminopyrrolidine compounds useful as monoamines reuptake inhibitors” (OTSUKA PHARMACEUTICAL CO., LTD., priority 2005, dated 2018).
Where a name gives a salt, the structure may show the parent alone.

How the values were obtained:
Format in all cases: biochemical
[1] = biological target: T1, Norepinephrine (NE) uptake into rat brain synaptosome (hippocampus) (Rattus norvegicus, UniProt Q63380); test: Inhibitory activity on norepinephrine (NE) uptake into rat brain synaptosome; conditions: tritium-labeled NE 12 nM uptake, 10 min at 37° C., read-out: 50% inhibitory concentration
T1 construct: used as crude synaptosome fraction; from tissue; host or cells: rat (male Wistar) hippocampus, crude synaptosome fraction
T1 sequence (Q63380 1-617): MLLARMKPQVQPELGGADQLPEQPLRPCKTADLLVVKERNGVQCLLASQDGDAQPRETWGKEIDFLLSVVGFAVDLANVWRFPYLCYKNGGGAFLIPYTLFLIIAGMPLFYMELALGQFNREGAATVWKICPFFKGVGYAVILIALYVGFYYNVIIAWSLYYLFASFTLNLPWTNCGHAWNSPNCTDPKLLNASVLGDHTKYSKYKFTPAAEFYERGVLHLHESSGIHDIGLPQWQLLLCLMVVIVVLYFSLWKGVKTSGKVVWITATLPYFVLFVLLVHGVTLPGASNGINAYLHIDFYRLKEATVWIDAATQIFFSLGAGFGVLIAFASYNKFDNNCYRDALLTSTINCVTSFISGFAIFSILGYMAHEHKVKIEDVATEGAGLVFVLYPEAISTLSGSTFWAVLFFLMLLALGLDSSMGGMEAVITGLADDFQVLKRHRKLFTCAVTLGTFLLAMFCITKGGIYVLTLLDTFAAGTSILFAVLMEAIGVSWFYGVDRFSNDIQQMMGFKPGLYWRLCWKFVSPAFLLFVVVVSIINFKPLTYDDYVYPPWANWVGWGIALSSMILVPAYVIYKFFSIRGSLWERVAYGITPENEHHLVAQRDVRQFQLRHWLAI
Experimental: Pharmacological Test 2 Evaluation of Inhibitory Activity of Test Compound on Norepinephrine (NE) Uptake into Rat Brain Synaptosome
(§1) Male Wistar rats were decapitated and the brains were removed and the hippocampi were dissected. The separated hippocampi were homogenized in 20 volumes as weight of 0.32 M sucrose solution by a Potter-type homogenizer. The homogenate was centrifuged at 1000 g at 4° C. for 10 minutes, and the supernatant was then centrifuged at 20000 g at 4° C. for 20 minutes. The pellet was resuspended in incubation buffer (20 mM HEPES buffer (pH 7.4)) containing 10 mM glucose, 145 mM sodium chloride, 4.5 mM potassium chloride, 1.2 mM magnesium chloride, and 1.5 mM calcium chloride) and used as crude synaptosome fraction.
The uptake reaction mixture was suspended in final volume of 200 μl containing pargyline (final concentration of 10 μM) and sodium ascorbate (final concentration of 0.2 mg/ml) in each well of 96-well-round-bottom-plate.
(§2) Solvent, unlabeled NE, and serial diluted test compounds were added to each well, and synaptosome fraction of 1/10 volume of the final volume were added. After 10 minutes preincubation at 37° C., the uptake was initiated by the addition of tritium-labeled NE solution (final concentration of 12 nM) at 37° C. The uptake was stopped after 10 minutes by filtration under vacuum through a 96-well glass fiber filter plate. After washing the filter with cold physiological saline and drying up, Microscint-0 (Perkin-Elmer) was added, and remained radioactivity on the filter was measured.
(§3) The total uptake activity with only solvent was determined as 100%, and the nonspecific uptake activity with unlabeled NE (final concentration of 10 μM) was determined as 0%. The 50% inhibitory concentrations were calculated based on the concentrations of the test compounds and their inhibitory activities.

[2] = biological target: T2, Serotonin (5-HT) uptake into rat brain synaptosome (frontal cortex) (Rattus norvegicus, UniProt P31652); test: Inhibitory activity on serotonin (5-HT) uptake into rat brain synaptosome; conditions: tritium-labeled 5-HT 8 nM uptake, 10 min at 37° C., read-out: 50% inhibittory concentration
T2 construct: used as crude synaptosome fractions; from tissue; host or cells: rat (male Wistar) frontal cortex, crude synaptosome fraction
T2 sequence (P31652 whole entry): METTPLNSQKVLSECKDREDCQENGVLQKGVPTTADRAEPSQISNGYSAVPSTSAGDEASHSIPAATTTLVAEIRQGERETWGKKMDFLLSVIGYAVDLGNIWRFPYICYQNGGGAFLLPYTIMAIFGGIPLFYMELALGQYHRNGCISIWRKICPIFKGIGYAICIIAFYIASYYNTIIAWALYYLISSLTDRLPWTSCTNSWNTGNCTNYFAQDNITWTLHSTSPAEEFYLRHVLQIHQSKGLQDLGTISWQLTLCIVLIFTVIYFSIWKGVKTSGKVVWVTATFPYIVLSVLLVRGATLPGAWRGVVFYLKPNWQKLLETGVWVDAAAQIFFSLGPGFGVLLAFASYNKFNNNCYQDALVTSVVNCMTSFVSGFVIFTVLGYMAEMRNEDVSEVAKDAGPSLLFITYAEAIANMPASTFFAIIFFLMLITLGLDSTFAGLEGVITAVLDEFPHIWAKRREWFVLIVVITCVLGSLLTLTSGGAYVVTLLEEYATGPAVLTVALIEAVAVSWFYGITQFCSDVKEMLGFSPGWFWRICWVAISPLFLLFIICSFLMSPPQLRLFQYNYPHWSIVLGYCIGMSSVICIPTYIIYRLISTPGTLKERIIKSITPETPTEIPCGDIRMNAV
Experimental: Pharmacological Test 1 Evaluation of Inhibitory Activity of Test Compound on Serotonin (5-HT) Uptake into Rat Brain Synaptosome
as §1, with “frontal cortices” for “hippocampi”, “fractions.” for “fraction.”
(§4) The uptake reaction mixture was suspended in a final volume of 200 μl containing pargyline (final concentration of 10 μM) and sodium ascorbate (final concentration of 0.2 mg/ml) in each well of 96-well-round-bottom-plate.
Solvent, unlabeled 5-HT, and serial diluted test compounds were added in each well, and synaptosome fraction of 1/10 volume of the final volume were added. After a 10 min preincubation at 37° C., the uptake was initiated by the addition of tritium-labeled 5-HT solution (final concentration of 8 nM) at 37° C. The uptake was stopped after 10 minutes by filtration under vacuum through a 96-well glass fiber filter plate. After washing the filter with cold physiological saline and drying up, Microscint-O (Perkin-Elmer) was added, and remained radioactivity on the filter was measured.
as §3, with “5-HT” for “NE”

[3] = biological target: T3, Dopamine (DA) uptake into rat brain synaptosome (striatum) (Rattus norvegicus, UniProt P23977); test: Inhibitory activity on dopamine (DA) uptake into rat brain synaptosome; conditions: tritium labeled DA 2 nM uptake, 10 min at 37° C., read-out: 50% inhibitory concentration
T3 construct: used as crude synaptosome fraction; from tissue; host or cells: rat (male Wistar) striatum, crude synaptosome fraction
T3 sequence (P23977 whole entry): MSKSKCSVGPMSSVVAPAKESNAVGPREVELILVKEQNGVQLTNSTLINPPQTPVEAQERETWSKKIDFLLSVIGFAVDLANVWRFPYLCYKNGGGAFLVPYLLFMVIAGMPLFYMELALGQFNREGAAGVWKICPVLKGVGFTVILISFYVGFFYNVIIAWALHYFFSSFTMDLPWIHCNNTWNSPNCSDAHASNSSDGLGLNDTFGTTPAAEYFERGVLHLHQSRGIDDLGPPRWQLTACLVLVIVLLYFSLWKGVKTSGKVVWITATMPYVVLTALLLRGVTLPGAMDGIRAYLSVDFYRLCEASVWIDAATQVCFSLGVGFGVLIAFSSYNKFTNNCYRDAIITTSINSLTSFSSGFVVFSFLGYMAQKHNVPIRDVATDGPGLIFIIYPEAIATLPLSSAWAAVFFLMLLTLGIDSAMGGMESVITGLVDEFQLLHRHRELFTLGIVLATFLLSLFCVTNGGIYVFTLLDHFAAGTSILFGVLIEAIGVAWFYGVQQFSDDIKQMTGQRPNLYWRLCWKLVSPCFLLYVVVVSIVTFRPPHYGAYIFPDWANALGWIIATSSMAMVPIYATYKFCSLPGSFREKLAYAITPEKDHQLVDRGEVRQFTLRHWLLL
Experimental: Pharmacological Test 3 Evaluation of Inhibitory Activity of Test Compound on Dopamine (DA) into Rat Brain Synaptosome
as §1, with “striata” for “hippocampi”
as §4
as §2, with “unlabeled DA,” for “unlabeled NE,”, “added in” for “added to”, “After 10-min” for “After 10 minutes”, “of tritium labeled DA” for “of tritium-labeled NE”, “of 2” for “of 12”, “was added” for “was added,”
as §3, with “The” for “The total”, “DA” for “NE”

SMILES | IC50 [1] | IC50 [2] | IC50 [3]
Clc1ccc(N(c2ccccc2)C2CCNC2)cc1Cl (stereo not drawn) [Example 1, (3,4-dichlorophenyl)phenylpyrrolidin-3-ylamine dihydrochloride] | 0.6 nM |  | 
Fc1ccc(N(CCCCOc2ccccn2)[C@H]2CCNC2)cc1Cl [Example 5, (3-chloro-4-fluorophenyl)-[4-(pyridin-2-yloxy)butyl]-(S)-pyrrolidin-3-ylamine difumarate] |  | 1.6 nM | 
CSc1ccc(N(c2ccccc2)[C@H]2CCNC2)cc1 [Example 19] |  | 0.7 nM | 
Fc1ccc(N(c2ccccc2)[C@H]2CCNC2)cc1Cl [Example 44] | 0.4 nM |  | 8.7 nM
Cc1ccc(N(c2cccc(F)c2)[C@H]2CCNC2)cc1Cl [Example 98] | 0.3 nM |  | 
Fc1ccc(N(c2ccc3ccsc3c2)[C@H]2CCNC2)cc1 [Example 114] | 0.4 nM | 0.8 nM | 32.5 nM
c1ccc(N(c2ccc3sccc3c2)[C@H]2CCNC2)cc1 [Example 116] | 0.1 nM |  | 8.9 nM
Fc1ccc(N(c2cnc3ccccc3c2)[C@H]2CCNC2)cc1Cl [Example 149] |  | 1.2 nM | 
Clc1ccc(N(c2ccccn2)[C@H]2CCNC2)cc1Cl [Example 188] | 0.1 nM |  | 
CCN1CCN(c2ccc(N(c3ccc(F)c(Cl)c3)[C@H]3CCNC3)nc2)CC1 [Example 201] |  |  | 4.3 nM
N#Cc1ccc(N(c2ccc(F)c(Cl)c2)[C@H]2CCNC2)cn1 [Example 268] |  | 0.8 nM | 6.5 nM
N#Cc1ccc(-c2cncc(N(c3ccc(F)c(Cl)c3)[C@H]3CCNC3)c2)cc1 [Example 272] |  |  | 30 nM
Clc1ccc(N(c2ccncc2)[C@H]2CCNC2)cc1Cl [Example 273] |  |  | 32.9 nM
Fc1ccc(N(c2ccsc2)[C@H]2CCNC2)cc1Cl [Example 278] | 0.3 nM | 2.2 nM | 34.7 nM
c1cncc(N(c2ccc3ccsc3c2)[C@H]2CCNC2)c1 [Example 289] | 0.1 nM |  | 30.6 nM
c1cncc(N(c2ccc3sccc3c2)[C@H]2CCNC2)c1 [Example 294] |  |  | 24 nM
c1cc2cc(N(c3ccc4sccc4c3)[C@H]3CCNC3)ccc2s1 [Example 299] |  |  | 48.6 nM
c1cc2ccc(N(c3ccc4ccsc4c3)[C@H]3CCNC3)cc2s1 [Example 300] |  |  | 9.6 nM
Fc1cncc(N(c2ccc(F)c(Cl)c2)[C@H]2CCNC2)c1 [Example 894] | 0.3 nM | 2.6 nM | 9.4 nM
Cc1cc(N(c2cncc(F)c2)[C@H]2CCNC2)ccc1F [Example 895] | 0.5 nM | 3 nM | 38 nM
Fc1ccc(N(c2ccc3ccsc3n2)[C@H]2CCNC2)cc1 [Example 899] |  | 0.7 nM | 
c1ccc(N(c2ccc3cnsc3c2)[C@H]2CCNC2)cc1 [Example 900] | 0.6 nM | 1.5 nM | 
Fc1ccc(N(c2ccc3ncccc3c2)[C@H]2CCNC2)cc1Cl [Example 913] | 0.8 nM | 0.8 nM | 6.5 nM
O=C1CCc2ccc(N(c3ccc(F)cc3)[C@H]3CCNC3)cc2N1 [Example 917] |  | 0.7 nM | 
Fc1ccc(N(c2ccc3cnsc3c2)[C@H]2CCNC2)cc1Cl [Example 930] | 1 nM | 0.8 nM | 6.8 nM
c1ccc(N(c2ccc3sccc3n2)[C@H]2CCNC2)cc1 [Example 934] |  | 1.8 nM | 
Clc1ccc(N(c2cnccn2)[C@H]2CCNC2)cc1Cl [Example 963] | 0.8 nM | 1 nM | 47.1 nM

Further lines, results first:

IC50 [1] | IC50 [2] | IC50 [3] | SMILES
0.8 nM |  |  | Fc1ccc(N(c2ccccc2)[C@H]2CCNC2)cc1 [Example 20]
2.2 nM |  |  | Cc1ccc(N(c2ccccc2)[C@H]2CCNC2)cc1 [Example 22]
 |  | 9.3 nM | Cc1cc(N(c2ccccc2)[C@H]2CCNC2)ccc1F [Example 46]
 | 0.6 nM | 9 nM | N#Cc1ccc(N(c2ccc(F)c(Cl)c2)[C@H]2CCNC2)cc1 [Example 73]
0.2 nM | 0.6 nM |  | Fc1ccc(N(c2nccs2)[C@H]2CCNC2)cc1Cl [Example 131]
 | 0.8 nM |  | Cc1cc(N(c2cnc3ccccc3c2)[C@H]2CCNC2)ccc1F [Example 151]
0.2 nM | 0.8 nM | 9.2 nM | Fc1ccc(N(c2ccccn2)[C@H]2CCNC2)cc1Cl [Example 154]
 |  | 3.8 nM | Fc1ccc(N(c2ccc(N3CCNCC3)cn2)[C@H]2CCNC2)cc1Cl [Example 200]
0.2 nM |  |  | COc1cccc(N(c2ccc(F)c(Cl)c2)[C@H]2CCNC2)n1 [Example 223]
0.2 nM |  |  | Clc1ccc(N(c2cccnc2)[C@H]2CCNC2)cc1Cl [Example 242]
0.5 nM |  |  | Fc1ccc(N(c2ccc(Cl)nc2)[C@H]2CCNC2)cc1Cl [Example 244]
0.1 nM |  |  | Clc1ccc(N(c2cccnc2)[C@H]2CCNC2)cc1Cl [Example 256]
 |  | 8.2 nM | N#Cc1ccc(N(c2ccc(Cl)c(Cl)c2)[C@H]2CCNC2)cn1 [Example 270]
0.8 nM | 1.4 nM |  | Fc1ccc(N(C2CCCC2)[C@H]2CCNC2)cc1Cl [Example 306]
0.9 nM | 2.5 nM |  | [O-][n+]1cccc(N(c2ccc(F)c(Cl)c2)[C@H]2CCNC2)c1 [Example 896]
 | 0.7 nM |  | Fc1ccc(N(c2ccc3cnsc3c2)[C@H]2CCNC2)cc1 [Example 901]
0.7 nM | 1.2 nM |  | Cc1cc2ccc(N(c3ccccc3)[C@H]3CCNC3)cc2s1 [Example 903]
 | 1 nM | 30.2 nM | Cn1c(=O)ccc2cc(N(c3ccc(F)c(Cl)c3)[C@H]3CCNC3)ccc21 [Example 912]
0.5 nM |  | 29.8 nM | Fc1cncc(N(c2ccc3sccc3c2)[C@H]2CCNC2)c1 [Example 951]
0.7 nM | 2.8 nM | 9.6 nM | Fc1ccc(N(c2ccc(Cl)c(Cl)c2)[C@H]2CCNC2)nc1 [Example 961]
0.8 nM |  | 26 nM | Cn1ncc2ccc(N(c3ccc(F)c(Cl)c3)[C@H]3CCNC3)cc21 [Example 990]
0.4 nM |  |  | c1ccc2cc(N(c3ccsc3)[C@H]3CCNC3)ccc2c1 [Example 1000]
0.1 nM |  | 16.4 nM | c1cc(N(c2ccc3ccsc3c2)[C@H]2CCNC2)cs1 [Example 1001]
0.1 nM |  | 32.9 nM | c1cc(N(c2ccc3sccc3c2)[C@H]2CCNC2)cs1 [Example 1002]
